Data reported in patent publication US20240299376A1, “METHOD OF TREATING A CONDITION USING A […] EFFECTIVE DOSE OF 1-(1-OXO-1,2-DIHYDROISOQUINOLIN-5-YL)-5-(TRIFLUOROMETHYL)-N-(2-(TRIFLUOROMETHYL)PYRIDIN-4-YL)-1H-PYRAZOLE-4-CARBOXAMIDE” (Janssen Pharmaceutica NV, priority 2021, published 2024).
Where “and” joins values, the source holds several entries; their conditions need not be identical. Equal values may be shown once. Entries after “also recorded” stand apart in the source; their conditions may differ. Read-outs that look alike come from different tables or passages of the source. Marks after values point to notes of the source that are not given here.

What was measured:
[1] = 14-day oral toxicity study toxicokinetics in dogs (beagles); format: in vivo, dog; settings: for Cmax: female, beagle, dog, in vivo, po, 250 mg/kg/day
Experimental: Repeated-dose PK (toxicokinetics) were obtained as part of the repeated oral dose toleration toxicity studies in rats and dogs.
However, there was no increase in the exposure parameters at 250 mg/kg/day from the first day of dosing until Day 7 when the dose group was terminated.

[2] = FIH study 67856633LYM1001 plasma pharmacokinetics; format: in vivo, human; settings: for AUC: read-out: AUCτ
Excerpt: The study consists of a dose escalation phase (Part 1), to determine the recommended Phase 2 dose(s) (RP2D[s]), followed by an expansion phase at the RP2D(s) (Part 2). The dose escalation phase is supported using an adaptive dose escalation strategy guided by the modified continual reassessment method (mCRM) based on a Bayesian Logistic Regression Model (BLRM) with escalation with overdose control (EWOC) principle. The mCRM design allows the use of all cumulative dose-limiting toxicities (DLT) data up to the current dose cohort.
In Part 1, subjects were enrolled in cohorts of daily oral doses at 50 mg, 100 mg, 200 mg (1×200 mg or 4×50 mg), 300 mg (3×100 mg or 6×50 mg), 400 mg (2×200 mg or 8×50 mg), and 600 mg (3×200 mg), and loading dosing cohorts—400 mg loading dose once daily for 14 days, followed by 300 mg once daily, and 300 mg loading dose twice daily for 7 days followed by 300 mg once daily. In Part 2, subjects received daily oral doses of 300 mg.
In Part 1, PK data were available in subjects receiving doses of 50 mg (1×50 mg), 100 mg (2×50 mg), 200 mg (4×50 mg or 1×200 mg), 300 mg (6×50 mg or 3×100 mg), 400 mg (8×50 mg or 2×200 mg), and 600 mg (3×200 mg). Pharmacokinetic data were also available from the loading dose regimens of 400 mg (8×50 mg) loading dose once daily for 14 days followed by 300 mg (6×50 mg) once daily, and 300 mg (6×50 mg) loading dose twice daily for 7 days followed by 300 mg (6×50 mg) once daily.

[3] = Day 1, 10 to 50 mg/kg/day (5-fold increase in dose)
[4] = Day 1, 10 to 250 mg/kg/day (25-fold increase in dose)
[5] = Cycle 1 Day 1, 200 mg capsule, cohort 3 × 200 mg, individual values, N = 2, listed as JNJ-67856633
[6] = Cycle 2 Day 1, 50 mg capsule, cohort 6 × 50 mg (300 mg QD), mean, listed as JNJ-67856633
[7] = Cycle 2 Day 1, 200 mg capsule, cohort 200 mg, individual values, N = 2, listed as JNJ-67856633
[8] = Cycle 2 Day 1, 200 mg capsule, cohort 3 × 200 mg, individual values, N = 2, listed as JNJ-67856633
[9] = Cycle 2 Day 1, cohort 6 × 50 mg BID > QD, individual values, N = 2, listed as JNJ-67856633
[10] = Cycle 2 Day 1 / Cycle 1 Day 1, 50 mg capsule, cohort 50 mg, mean
[11] = Cycle 2 Day 1 / Cycle 1 Day 1, cohort 2 × 50 mg, mean
[12] = Cycle 2 Day 1 / Cycle 1 Day 1, cohort 2 × 200 mg food adlib, mean
[13] = Cycle 2 Day 1 / Cycle 1 Day 1, cohort 2 × 200 mg, mean
[14] = Cycle 2 Day 1 / Cycle 1 Day 1, cohort 3 × 200 mg, individual values, listed as JNJ-67856633
[15] = Cycle 2 Day 1 / Cycle 1 Day 1, cohort 4 × 50 mg, mean
[16] = Cycle 2 Day 1 / Cycle 1 Day 1, cohort 6 × 50 mg, mean
[17] = Cycle 2 Day 1 / Cycle 1 Day 1, cohort 8 × 50 mg > 6 × 50 mg, mean
[18] = Cycle 2 Day 1 / Cycle 1 Day 1, cohort 8 × 50 mg, mean

## O=C(Nc1ccnc(C(F)(F)F)c1)c1cnn(-c2cccc3c(=O)[nH]ccc23)c1C(F)(F)F [Compound A, 1-(1-oxo-1,2-dihydroisoquinolin-5-yl)-5-(trifluoromethyl)-N-[2-(trifluoromethyl)pyridin-4-yl]-1H-pyrazole-4-carboxamide]
[1]; [3]
  increase in AUC0-24h with dose: 5.8 fold
  increase in Cmax with dose: 5.5 fold
[1]; [4]
  increase in AUC0-24h with dose: 23 fold
  increase in Cmax with dose: 20 fold
[1]; escalated single oral doses vs MTD upon 14 days of dosing in dogs
  relation of single doses to maximum tolerated dose (MTD): greater than the maximum tolerated dose (MTD) upon 14 days of dosing in dogs
[1]; female beagles, 10, 50, and 250 mg/kg/day PO for 14 days
  toxicity findings: moribundity and mortality resulted in early termination of the 50 and 250 mg/kg dose groups
[1]
  Cmax: 263,000 ng/mL
[1]; Cmax
  Cmax: 290000 ng/mL
[2]; Cycle 1 Day 1, 50 mg capsule, cohort 6 × 50 mg (300 mg QD), mean, n = 9, listed as JNJ-67856633
  AUCτ: 152^c μg · h/mL
[2]; Cycle 1 Day 1, 50 mg capsule, cohort 6 × 50 mg (300 mg QD), mean, listed as JNJ-67856633
  Cmax: 8.81 µg/mL
[2]; Cycle 1 Day 1, 200 mg capsule, cohort 3 × 200 mg, individual values, N = 2
  Tmax: 3.00, 3.00 h
[2]; [5]
  AUCτ: 76.6 µg·h/mL
  Cmax: 4.50 µg/mL
[2]; Cycle 2 Day 1, 50 mg capsule, cohort 50 mg, mean
  Cmin: 6.85 µg/mL
[2]; Cycle 2 Day 1, 50 mg capsule, cohort 2 × 50 mg, mean
  Cmin: 15.6 µg/mL
[2]; Cycle 2 Day 1, 50 mg capsule, cohort 4 × 50 mg, Subject 100032 excluded, mean
  Cmin: 30.4^e μg/mL
[2]; Cycle 2 Day 1, 50 mg capsule, cohort 6 × 50 mg (300 mg QD), mean
  Cmin: 39.5 µg/mL
[2]; [6]
  AUCτ: 1144 µg·h/mL
  Cmax: 55.2 µg/mL
[2]; Cycle 2 Day 1, 50 mg capsule, cohort 8 × 50 mg, mean
  Cmin: 55.6 µg/mL
[2]; [7]
  Cmax: 14.5 µg/mL
  Cmin: 15.5, μg/mL and 11.4 μg/mL
  Tmax: 0.5 h
[2]; Cycle 2 Day 1, 200 mg capsule, cohort 2 × 200 mg food adlib, mean
  Cmin: 33.3 µg/mL
[2]; Cycle 2 Day 1, 200 mg capsule, cohort 2 × 200 mg, mean
  Cmin: 30.7 µg/mL
[2]; [8]
  AUCτ: 458 µg·h/mL and 1811 µg·h/mL
  Cmax: 21.2, μg/mL and 98.6 μg/mL
  Cmin: 13.5 µg/mL and 71.2 µg/mL
  Tmax: 0.00 h and 0.50 h
[2]; Cycle 2 Day 1, cohort 6 × 50 mg BID > QD (300 mg BID 7 days then 300 mg QD), individual values, N = 2
  Cmax: about 29.2 μg/mL; also recorded: about 67 μg/mL
[2]; Cycle 2 Day 1, cohort 6 × 50 mg BID > QD (300 mg BID 7 days then 300 mg QD), individual values, N = 2, listed as JNJ-67856633
  Cmax: 29.2, μg/mL and 67.0 μg/mL
[2]; Cycle 2 Day 1, cohort 6 × 50 mg BID > QD, individual values, N = 2
  AUCτ: about 651 μg · h/mL; also recorded: about 1406 μg · h/mL
[2]; [9]
  AUCτ: 651 µg·h/mL and 1406 µg·h/mL
  Cmin: 26.1, μg/mL and 50.6 μg/mL
  Tmax: 3.00, 3.00 h
[2]; Cycle 2 Day 1, cohort 8 × 50 mg > 6 × 50 mg, Subject 100070 excluded, mean
  Cmin: 55.8^g μg/mL
[2]; [10]
  ARAUC: 8.37
  ARCmax: 7.30
[2]; Cycle 2 Day 1 / Cycle 1 Day 1, 200 mg capsule, cohort 200 mg
  ARAUC: 5.51^i
[2]; Cycle 2 Day 1 / Cycle 1 Day 1, 200 mg capsule, cohort 200 mg, individual values, listed as JNJ-67856633
  ARCmax: 4.81, and 3.21
[2]; [11]
  ARAUC: 7.80
  ARCmax: 6.56
[2]; [12]
  ARAUC: 12.7
  ARCmax: 12.0
[2]; [13]
  ARAUC: 9.35
  ARCmax: 7.40
[2]; [14]
  ARAUC: 3.73 and 23.7
  ARCmax: 2.72 and 21.9
[2]; [15]
  ARAUC: 8.10
  ARCmax: 7.32
[2]; Cycle 2 Day 1 / Cycle 1 Day 1, cohort 6 × 50 mg BID > QD
  ARCmax: 10.4^j
[2]; [16]
  ARAUC: 8.50
  ARCmax: 7.32
[2]; [17]
  ARAUC: 9.80^g, h
  ARCmax: 7.7^g
[2]; [18]
  ARAUC: 12.4^f
  ARCmax: 11.3^f
[2]; human, plasma, oral, 50 mg, Cycle 1 Day 1, 50 mg capsule, cohort 50 mg, mean
  AUC: 29.1 µg·h/mL
[2]; human, plasma, oral, 50 mg, Cycle 1 Day 1, 50 mg capsule, cohort 50 mg, mean, read-out: Cmax
  Cmax: 1.6 µg/mL
[2]; human, plasma, oral, 50 mg, Cycle 1 Day 1, 50 mg capsule, cohort 50 mg, median, read-out: Tmax
  Tmax: 3 h
[2]; human, plasma, oral, 50 mg, Cycle 2 Day 1, 50 mg capsule, cohort 50 mg, mean
  AUC: 180 µg·h/mL
[2]; human, plasma, oral, 50 mg, Cycle 2 Day 1, 50 mg capsule, cohort 50 mg, mean, read-out: Cmax
  Cmax: 8.74 µg/mL
[2]; human, plasma, oral, 50 mg, Cycle 2 Day 1, 50 mg capsule, cohort 50 mg, median, read-out: Tmax
  Tmax: 2 h
